For 16 compounds, IC50 results are on record in patent US8586604B2, “Inhibitors of the microsomal prostaglandin E2 synthase-1” (Boehringer Ingelheim International GmbH, priority 2010, dated 2013).

This assay has as its target T1, recombinant human mPGES-1 (Homo sapiens, UniProt O14684).
T1 construct: made in house; host or cells: Rosetta E. coli (membrane/microsome fraction)
T1 sequence (O14684 1-152): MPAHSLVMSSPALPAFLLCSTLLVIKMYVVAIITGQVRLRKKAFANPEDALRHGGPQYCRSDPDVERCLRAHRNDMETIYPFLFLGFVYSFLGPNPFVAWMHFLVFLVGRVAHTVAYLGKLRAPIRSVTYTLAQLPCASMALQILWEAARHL
Put plainly: mPGES-1 enzyme assay (HTRF detection of PGE2). It is filed as biochemical. To be noted: recombinant human mPGES-1 microsomes, PGH2 2 μM, read-out: mPGES-1 inhibitory effect IC50. As for the experimental part: Microsomes from Rosetta E. coli bacteria expressing recombinant human mPGES-1 can be derived as described below:
Inoculate 5 ml LB with Ampicilin (50 μg/ml) and Chloramphenicol (34 μg/ml) with bacteria from freeze culture. Incubate 8 h at 37° C. with 200 rpm. Thereafter, inoculate 500-1000 ml LB containing Amp and Chloro with the 5 ml on culture and grow to OD640 of 0.8-1.0.
Chill the culture to +4° C. before induction. Induce the culture with IPTG at a final concentration of 400 μM. Express the protein at room temp 18-23° C. with 200 rpm shaking over night.
The following steps can be performed on the following day: • 1. Spin down the cells in 250 ml centrifuge flasks for 15 min at 7000 rpm (Beckmann Coulte Avanti J-E centrifuge) • 2. Dissolve the pellet from 250 ml culture in 12.5 ml homogenization buffer • 3. (15 mM Tris-HCL pH8, 1 mM EDTA pH8, 0.25 mM Sucrose, 2.5 mM GSH, 1Tablet Protease inhibitor per 50 ml buffer) • 4. Disintegrate the cells by sonication, 5×10 seconds at 48% amplitude of a 750 W sonifier • 5. Add 2.5 ml MgCl2 (100 mM) and DNase 12.5 μl (0.8 mg/ml) and incubate on ice for 30 min • 6. Spin down the bacteria debris and save the supernatant, 7000 rpm for 15 min • 7. Isolate the protein containing membranes in the supernatant by ultracentrifugation 120000×g for 2 hour at 4° C. (Sorvall T880 rotor). • 8. Discard the supernatant and dissolve the pellet in 20 mM Potassium phosphate buffer pH7.4 (KH2PO4 and K2HPO4) buffer by sonication (5×10 s, 30% of a 50 W sonifier) and aliquot the enzyme and store aliquots at −80° C.
Before each experiment is performed an aliquot of the enzyme is thawed and it can then be dissolved in 0.1 M Potassium phosphate buffer pH7.4 (KH2PO4 and K2HPO4) buffer containing 2.5 mM GSH.
The aim of this assay is to determine the affinity of a test compound for the mPGES-1 enzyme.
47 μl of recombinant human mPGES-1 (˜0.5 μg protein/well) containing microsomal suspension in a buffer containing GSH, (2.5 mmol/L L-Glutathione reduced, dissolved in 0.1 mol/L Phosphat Buffer pH 7.4) is dispensed in a 384-well plate and thereafter 1 μl of the test compound(s) is/are added and incubated for 25 minutes at room temperature. The enzyme reaction is started by the addition of 2 ul PGH2 (final conc. 2 μM) dissolved in water-free Diglyme. After 60 seconds the reaction is terminated by addition of a stop solution containing FeCl2 (10 μL 0.074 mol/l FeCl2). The samples are diluted between 1:25 in PBS (Phosphate Buffered Saline). 10 μl of the diluted samples are transferred to 384-well low volume plate. In order to quantify the amount of PGE2 that has been formed, a homogenous time resolved fluorescent (HTRF) detecting of PGE2 has been performed using a commercially available kit from Cisbio according to the manufactures recommendation. This HTRF-based assay has been described in detail (see: Goedken et al., J Biomol Screen, 2008, 13(7), 619-625). Briefly, the diluted samples are mixed with 5 μl PGE2-d2 conjungate and 5 μl anti-PGE2 cryptate conjungate. After an incubation period of the plates over night, the fluorescence is measured by the use of an appropriate microplate reader.
The fluorescence of Europium cryptate (maxex=307 nm, maxem=620 nm) and d2-PGE2 (maxex=620 nm, maxem=665 nm) are measured.
The extent of the specific HTRF is measured as a ratio of the emission intensity at 665 nm vs. that at 620 nm at an excitation pulse of 320 nm. The quantification plate contains also wells with different concentrations of PGE2 as calibration curve for the calculation of the PGE2 concentrations from the HTRF ratio values.
From all mPGES enzyme assay the background is subtracted and the IC50 is calculated over a nonlinear regression with conventional software.

Broadly, the IC50 is the concentration at which inhibition is half-maximal. On to `CC(C)(C)C(=O)NCc1ccc(Cl)c(Nc2nc3cc(C(=O)NCC(F)F)c(OCC(F)F)nc3n2CC(F)F)c1Cl` [Example 14], for which the IC50 is 1 nM.

Take `Cn1c(Nc2c(F)ccc(CNC(=O)C(C)(C)C)c2F)nc2cc(C(=O)N[C@H]3CC[C@H](C(F)(F)F)CC3)c(OCC(F)F)nc21` [Example 10, N-{2,4-Difluoro-3-[6-(trans-4-trifluoromethyl-cylohexylcarbamoyl)-5-(2,2-difluoro-ethoxy)-3-methyl-3H-imidazo[4,5-b]pyridin-2-ylamino]benzyl}-2,2-dimethyl-propionamide]: the IC50 is 5 nM.

For the compound `CC(C)(C)C(=O)NCc1ccc(F)c(Nc2nc3cc(C(=O)N[C@H]4CC[C@H](C(F)(F)F)CC4)c(OCC(F)F)nc3[nH]2)c1F` [Example 11], the IC50 was found to be 4 nM.

As for `O=C(N[C@H]1CC[C@H](C(F)(F)F)CC1)c1cc2nc(Nc3c(Cl)ccc(CNC(=O)C4(C(F)(F)F)CC4)c3Cl)[nH]c2nc1OCCOC(F)F` [Example 12], the IC50 was 1 nM.

On to `CC(C)(C)C(=O)NCc1ccc(Cl)c(Nc2nc3cc(C(=O)Nc4ccc(F)c(Cl)c4)c(OCC(F)F)nc3[nH]2)c1Cl` [Example 157], for which the IC50 amounted to 2 nM.

In the case of `Cn1c(Nc2cc(CNC(=O)C3(C(F)(F)F)CC3)ccc2Cl)nc2cc(C(=O)N[C@H]3CC[C@H](C(F)(F)F)CC3)c(OCCF)nc21` [Example 6], the IC50 was found to be 4 nM.

Consider `CC(C)(C)C(=O)NCc1ccc(Cl)c(Nc2nc3cc(C(=O)N[C@H]4CC[C@H](C(F)(F)F)CC4)c(OCC(F)F)nc3n2CC(F)F)c1Cl` [Example 15], for which the IC50 is 4 nM.

In the case of `O=C(N[C@H]1CC[C@H](C(F)(F)F)CC1)c1cc2[nH]c(Nc3cc(CNC(=O)C4(C(F)(F)F)CC4)ccc3Cl)nc2nc1OCCF` [Example 7], the IC50 came out at 8 nM.

`CC(C)(C)C(=O)NCc1ccc(Cl)c(Nc2nc3cc(C(=O)N[C@H]4CC[C@H](C(F)(F)F)CC4)c(OCC(F)F)nc3[nH]2)c1F` [Example 156, N-{2-Fluoro-4-chloro-3-[6-(trans-4-trifluoromethyl-cyclohexylcarbamoyl)-5-(2,2-difluoro-ethoxy)-1H-imidazo[4,5-b]pyridin-2-ylamino]benzyl}-2,2-dimethyl-propionamide]: the IC50 is 1 nM.

As to `Cn1c(Nc2c(Cl)ccc(CNC(=O)C(C)(C)C)c2Cl)nc2cc(C(=O)N[C@H]3CC[C@H](C(F)(F)F)CC3)c(OCC(F)F)nc21` [Example 9, N-{2,4-Dichloro-3-[6-(trans-4-trifluoromethyl-cyclohexylcarbamoyl)-5-(2,2-difluoro-ethoxy)-3-methyl-3H-imidazo[4,5-b]pyridin-2-ylamino]benzyl}-2,2-dimethyl-propionamide], the IC50 amounted to 6 nM.

Turning to `COCCOc1nc2nc(Nc3cc(CNC(=O)C4(C(F)(F)F)CC4)ccc3Cl)[nH]c2cc1C(=O)N[C@H]1CC[C@H](C(F)(F)F)CC1` [Example 3], the IC50 is 21 nM.

Consider `COCCOc1nc2c(cc1C(=O)N[C@H]1CC[C@H](C(F)(F)F)CC1)nc(Nc1cc(CNC(=O)C3(C(F)(F)F)CC3)ccc1Cl)n2C` [Example 4], for which the half-inhibitory concentration (IC50) was found to be 8 nM.

As for `Cn1c(Nc2cc(CNC(=O)C(C)(C)C)ccc2Cl)nc2cc(C(=O)Nc3ccc(Br)cc3)c(OCC(F)F)nc21` [Example 1, N-{4-Chloro-3-[6-(4-bromo-phenylcarbamoyl)-5-(2,2-difluoro-ethoxy)-3-methyl-3H-imidazo[4,5-b]pyridin-2-ylamino]benzyl}-2,2-dimethyl-propionamide], the IC50 was 9 nM.

Consider `Cn1c(Nc2cc(CNC(=O)C(C)(C)C)ccc2Cl)nc2cc(C(=O)N[C@H]3CC[C@H](C(F)(F)F)CC3)c(OCC(F)F)nc21` [Example 2, N-{4-Chloro-3-[6-(trans-4-trifluoromethyl-cyclohexylcarbamoyl)-5-(2,2-difluoro-ethoxy)-3-methyl-3H-imidazo[4,5-b]pyridin-2-ylamino]benzyl}-2,2-dimethyl-propionamide], for which the IC50 amounted to 3 nM.

`O=C(N[C@H]1CC[C@H](C(F)(F)F)CC1)c1cc2nc(Nc3cc(CNC(=O)C4(C(F)(F)F)CC4)ccc3Cl)[nH]c2nc1OCC(F)F` [Example 5]: the IC50 amounted to 4 nM.

For `CC(C)(C)C(=O)NCc1ccc(Cl)c(Nc2nc3cc(C(=O)N[C@H]4CC[C@H](C(F)(F)F)CC4)c(OCC(F)F)nc3[nH]2)c1Cl` [Example 8, N-{2,4-Dichloro-3-[6-(trans-4-trifluoromethyl-cyclohexylcarbamoyl)-5-(2,2-difluoro-ethoxy)-1H-imidazo[4,5-b]pyridin-2-ylamino]benzyl}-2,2-dimethyl-propionamide], the IC50 is 3 nM.
